Results on 4 compounds are retold here after patent US20020107414A1, “Method of prostaglandin synthesis” (priority 1993, published 2002).

The subject of experiment [1] is intraocular pressure (IOP). In words: IOP reduction in cynomolgus monkeys with ocular hypertension produced by laser trabeculoplasty. The format is in vivo. The note with it: for Percent IOP Reduction at Hours after Dose/Dose# 2/5: 2 hours after fifth dose; for Percent IOP Reduction at Hours after Dose/Dose# 4/5: 4 hours after fifth dose; for Percent IOP Reduction at Hours after Dose/Dose# 6/5: 6 hours after fifth dose; for Percent IOP Reduction at Hours after Dose/Dose# 16/4: 16 hours after fourth dose; for reduction of intraocular pressure (in words): at doses marginal or ineffective for other prostaglandins in published clinical studies. As to the method:
The ability of certain compounds of the present invention to reduce intraocular pressure (IOP) was evaluated in cynomolgus monkeys with ocular hypertension produced by previous laser trabeculoplasty in the right eye. Animals had been trained to sit in restraint chairs and conditioned to accept experimental procedures without chemical restraint. IOP was determined with a pneumatonometer after light corneal anesthesia with dilute proparacaine. The test protocol included a treatment regimen consisting of 5 divided doses administered over a period of 2 and ½ days. Doses 2-5 were given 8, 24, 32 and 48 hours after the initial dose. Baseline IOP values were determined prior to treatment with the test formulation, and then IOP was determined 16 hours after the fourth dose, and 2, 4 and 6 hours after the fifth dose. Prostaglandin doses are micrograms of compound contained in each treatment. The two compounds tested are those previously identified as Compounds (II) and (IV).

For experiment [2], the system named is intraocular pressure in human eyes. The note with it: cited from earlier work.
Experiment [3] relates to intraocular pressure (IOP). The note with it: rabbits, cited from earlier work.

Read-outs that look alike come from different tables or passages of the source.

In the case of `CC(C)OC(=O)CCC/C=C\C[C@@H]1[C@@H](CC[C@@H](O)C2CCCCC2)[C@H](O)C[C@H]1Cl` [Compound (IV), (5Z)-(9R, 11R, 15R)-9-Chloro-15-cyclohexyl-11,15-dihydroxy-16,17,18,19,20-pentanor-5-prostenoic Acid Isopropyl Ester], in experiment [1] (PG dose 20 μg per treatment), the “Percent IOP Reduction at Hours after Dose/Dose# 2/5” value is 30.1 ± 4.8%, the “Percent IOP Reduction at Hours after Dose/Dose# 4/5” value is 22.4 ± 5.2%, the “Percent IOP Reduction at Hours after Dose/Dose# 6/5” value turned out to be 19.3 ± 4.3% and the “Percent IOP Reduction at Hours after Dose/Dose# 16/4” value was 13.9 ± 2.7%. In addition, the “reduction of intraocular pressure (in words)” value in experiment [1] is listed as “significant reduction”.
For the compound `CCCCC[C@H](O)/C=C/[C@H]1C(=O)C[C@H](O)[C@@H]1C/C=C\CCCC(=O)O` [PGD2], in experiment [2] (50 μg), the “reduction of intraocular pressure in human eyes” value is recorded as 12%. In addition, in experiment [3] (250 μg), the “maximum IOP reduction” value is listed as “approximately 28%”.
For `O=C(O)CCCCCCC1C(=O)NC(=O)N1CCC(O)C1CCCCC1` (stereo not shown) [BW245C], the “reduction of intraocular pressure in human eyes” value in experiment [2] (2.5 μg) was 10%. Further, the “maximum IOP reduction” value in experiment [3] (25 μg) was approximately 22%.
`CC(C)(C)OC(=O)COC/C=C\C[C@@H]1[C@@H](CC[C@@H](O)C2CCCCC2)[C@H](O)C[C@H]1Cl` [Compound (II), (5Z)-(9R, 11R, 15R)-9-Chloro-15-cyclohexyl-11,15-dihydroxy-3-oxa-16,17,18,19,20-pentanor-5-prostenoic Acid t-Butyl Ester]: in experiment [1] (5 μg of compound), the “reduction of intraocular pressure” value was approximately 50%. Also, in experiment [1] (PG dose 1 μg per treatment), the “Percent IOP Reduction at Hours after Dose/Dose# 2/5” value is recorded as 30.8 ± 4.7%, the “Percent IOP Reduction at Hours after Dose/Dose# 4/5” value was determined as 26.4 ± 4.7%, the “Percent IOP Reduction at Hours after Dose/Dose# 6/5” value is 24.9 ± 4.0% and the “Percent IOP Reduction at Hours after Dose/Dose# 16/4” value came to 22.3 ± 2.7%. Further, in experiment [1] (PG dose 5 μg per treatment), the “Percent IOP Reduction at Hours after Dose/Dose# 2/5” value is recorded as 47.5 ± 5.1%, the “Percent IOP Reduction at Hours after Dose/Dose# 4/5” value is given as 43.7 ± 5.6% and the “Percent IOP Reduction at Hours after Dose/Dose# 6/5” value was determined as 36.5 ± 5.8%. Moreover, the “Percent IOP Reduction at Hours after Dose/Dose# 16/4” value in experiment [1] (PG dose 5 μg per treatment, lasered right eye, topical) is 38.3 ± 3.0%. Also, the “reduction of intraocular pressure (in words)” value in experiment [1] was “significant reduction”.
